Test [1] has as its target T1, G protein-coupled receptor 119 (GPR-119) (Mesocricetus auratus, UniProt A0A1U8CD06).
T1 construct: hamster-derived β-cells containing G protein-coupled receptor 119 (GPR-119), HIT-T15 cells; host or cells: HIT-T15 (hamster pancreatic β-cells)
T1 sequence (A0A1U8CD06 1-334): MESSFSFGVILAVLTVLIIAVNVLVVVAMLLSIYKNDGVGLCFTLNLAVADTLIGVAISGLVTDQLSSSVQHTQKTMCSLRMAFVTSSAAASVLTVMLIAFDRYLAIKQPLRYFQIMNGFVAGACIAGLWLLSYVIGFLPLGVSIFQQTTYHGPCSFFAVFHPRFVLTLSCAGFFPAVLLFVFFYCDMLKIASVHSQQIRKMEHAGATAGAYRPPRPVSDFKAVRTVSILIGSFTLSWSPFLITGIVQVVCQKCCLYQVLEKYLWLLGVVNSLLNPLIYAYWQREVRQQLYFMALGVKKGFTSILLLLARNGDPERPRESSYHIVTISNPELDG
Nature of the test: cAMP activity in HIT-T15 cells (cAMP dynamic kit, FRET). It is filed as cell-based, hamster. The settings on record: 1 hour at 37° C., six concentrations 0.0032 to 10 μM, read-out: EC50. An outline of the steps:
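Hamster HIT-T15 cells (60,000/well) were treated next day with compound at six concentrations, 0.0032–10 μM, for 1 h at 37° C. Cells were then lysed and cAMP measured by competitive HTRF immunoassay (D2-cAMP, cryptate anti-cAMP). Activity was derived as the change in FRET signal relative to DMSO.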

The test system of a further test is NCI-H716 cells. In words: Promotion of glucagon-like peptide-1 (GLP-1) secretion (ELISA). The note with it: 1, 10, 30 μM. The test is classed as cell-based, human. The method, then:
To evaluate an effect of the cyclohexene derivative according to the present invention on promotion of glucagon-like peptide-1 (GLP-1) secretion, experiments were carried out, as follows.
NCI-H716 cells that were human enterocytes were plated on 12 wells at 1×10^6 cells per well. After 48 hours, the cells were starved in serum-free media for 2 hours, and treated with a varying concentration of siptagliptin that was a dipeptidyl peptidase-IV (DPP-IV) inhibitor, and the compounds of Comparative Example 1 (1, 10, 30 μM), Comparative Example 5 (10 μM), Example 48 (1, 10, 30 μM), and Example 291 (1, 10, 30 μM). After an hour, supernatants are recovered to determine an amount of the secreted GLP-1 peptide. The GLP-1 measurement was performed using an enzyme-linked immunosorbant assay (ELISA; Millipore, EGLP-35K), and the amount of the secreted GLP-1 peptide was indicated by the unit “pM”.
(An ELISA detects its analyte on a solid surface through an enzyme-linked reagent.)

Test [2] concerns diet-induced obesity (DIO) C57BL/6J mice. In words: OGTT in diet-induced obesity (DIO) mice at the end of 4-week administration. The note with it: glucose 4 g/kg 30 minutes later. It is filed as in vivo. Here is the method: To simultaneously evaluate both the weight-loss and hypoglycemic effects of the cyclohexene derivative according to the present invention, experiments were carried out, as follows.
Specifically, male C57BL/6J mice (approximately 4 weeks old) in a diet-induced obesity model were fed with a high-fat diet (Lab. Diet Co.) for approximately 12 weeks to induce high-fat diet-induced obesity (DIO). The mice undergoing the high-fat diet were randomly selected, and divided into groups (n=8) for respective administrations.
The weights of the DIO mice were measured twice a week during a period of administration of 4 weeks to record a change in the weights. At the end of the 4-week period of administration, a hypoglycemic effect was evaluated using an oral glucose tolerance test (OGTT), as follows.
Specifically, the compound (+)-(4-(4-((1-(5-ethylpyrimidin-2-yl)piperidin-4-yl)methoxy)phenyl)cyclohex-3-enyl)((R)-2-(hydroxymethyl)pyrrolidin-1-yl)methanone or (−)-(4-(4-((1-(5-ethylpyrimidin-2-yl)piperidin-4-yl)methoxy)phenyl)cyclohex-3-enyl)((R)-2-(hydroxymethyl)pyrrolidin-1-yl)methanone prepared in Example 290 or 291 was orally administered at a dose of 10 to 20 mg/kg. […] A blood glucose level was determined using an Accu-Chek Active Strip (Roche diagnostic Co.). […]

For orientation: EC50 means the concentration that produces a half-maximal response.

In the case of `CCc1cnc(N2CCC(COc3ccc(C4=CCC(C(=O)N5CCC[C@@H]5CO)CC4)cc3)CC2)nc1` (single isomer, unassigned; (-)) [Example 291], the EC50 in test [1] worked out at 32 nM. Moreover, the “GLP-1 secretion relative to the untreated group” value with NCI-H716 cells was “approximately 1.8 times”. For the same molecule, the “% AUC (hypoglycemic level)” value in test [2] (10 mg/kg oral) is recorded as 16.2 % AUC; in test [2] (20 mg/kg oral), 17.6 % AUC.
